Data published in patent publication US9409868B2, “Inhibitors of rho associated protein kinases (ROCK) and methods of use” (H. LEE MOFFITT CANCER CENTER AND RESEARCH INSTITUTE, INC., priority 2012, dated 2016).
Like-named read-outs stand apart in the source and are kept apart here.

Assays:
ROCK1 = ROCK1 (Homo sapiens (Human), UniProt Q13464); assay: Z-Lyte FRET kinase assay, ROCK1; type: biochemical
Source text: (§1) Kinase Assay. A robust FRET-based, enzyme-coupled assay format, Z-Lyte® Kinase Assay Ser/[…] Peptide Kit (Invitrogen, cat. PV3793), was employed in this study to monitor inhibition of ROCK1 (Invitrogen, cat. PV3691) and ROCK2 (Invitrogen, cat. PV3759) enzyme activities. […] The substrate contains both coumarin and fluorescein and only uncleaved […] substrate will undergo FRET. […] A known inhibitor, Y-27632 (Tocris Bioscience, cat. 1254), is used as a control compound.

ROCK2 [1] = molecular target: T1, ROCK2 (Homo sapiens (Human), UniProt O75116); assay: Z-Lyte FRET kinase assay, ROCK2; type: biochemical
Source text: as §1

MDA-MB-231 cells [2] = assay: Matrigel Transwell invasion assay; type: cell-based, human; conditions: for inhibition of invasion (figure legend): FIG. 8
Experimental: Invasion Assay. Invasion assay was performed in Corning Transwell inserts coated with Matrigel. MDA-MB-231 cells were seeded at 3.5_105 and allowed to grow overnight in a 6-well plate. The cells were treated with either vehicle or different doses of RKIs for 24 h. After treatment, the cells were trypsinized, resuspended and plated in the inserts. The bottom chamber contained 20% FBS as the ‘chemoattractant’. The cells were kept in the incubator for 48 h. After incubation, the cells were stained and membrane was quantified.

MDA-MB-231 cells [3] = assay: Apoptosis by caspase 3 activation and PARP cleavage; type: cell-based, human; conditions: up to 30 mM (so in the source)
NIH 3T3 cells = assay: Cell morphology assay (phalloidin staining) in starved NIH 3T3 cells; type: cell-based; parameters: dose or concentration left out as unconfirmed; conditions: starved NIH 3T3, FIG. 6
Experimental: Cell Morphology Assay. NIH 3T3 cells were plated at 8000 cells per well in 8-chamber slide in serum-free media (serum starvation) for 24 h. After serum starvation, the cells were treated with vehicle or the RKIs for 1 h. After treatment, the cells were stimulated with […] LPA, 200 ng/ml bradykinin or 30 ng/ml PDGF for 30 min. After stimulation, the cells were fixed with 4% paraformaldehyde, permeabilized using 0.1% Triton X-100 and stained with Texas-Red phalloidin (Cat no. T7471) (Invitrogen, Eugene, Oreg., USA) and DAPI (40,6 diamidino-2-phenylindole: counterstains DNA) (Cat no. H-1200; Vector Laboratories, Burlingame, Calif., USA). The cells were imaged using Zeiss Upright Fluorescence Microscope.

MDA-MB-231 cells [4] = assay: Wound-healing scratch migration assay; type: cell-based, human; conditions: for inhibition of migration (wound-healing scratch assay): FIG. 8a
Experimental: Wound-Healing-Migration Assay. MDA-MB-231 cells were seeded at 4_105 cells per well in a 6-well plate and allowed to grow overnight at 37 1C and 5% CO2. The cells were starved for 24 h and scratched. The cells were then treated with different concentrations of RKIs in regular growth media for 24 h. Images of the scratch were acquired at 0 h and 24 h.

MDA-MB-231 cells [5] = assay: Soft agar anchorage-independent growth assay; type: cell-based, human
Experimental: Soft Agar Assay. MDA-MB-231 cells were seeded in a 12-well tissue culture plate at 1200 cells per well in regular growth media and 0.3% agar. The cells were treated with different doses of RKI-11 and RKI-18, allowed to grow for 4 weeks, after which the colonies were stained overnight with 1 mg/ml MTT and counted.

MDA-MB-231 cells [6] = assay: MTT assay, anchorage-dependent proliferation; type: cell-based, human
Experimental: MTT Assay. MTT assay was performed to determine the effects of RKIs on anchoragedependent cell proliferation. Briefly, cells were plated in a 96-well tissue culture plate (1200 cells per well) and incubated for 24 h. After incubation, the cells were treated with vehicle or increasing concentrations of RKI-11 or RKI-18 ([…]). After 72 h incubation, freshly prepared MTT (2 mg/ml) was added to each well and incubated for 3 h. After incubation, the plates were read at 540 nm.

[7] = system: phosphorylation of MLC2 (ROCK substrate) in MDA-MB-231 cells; assay: Western blot of MLC2 phosphorylation in MDA-MB-231 breast cancer cells; type: cell-based, human; conditions: 1 hr, MDA-MB-231, FIG. 4
Experimental: Western Blot Analysis. MDA-MB-468, MDA-MB-231, MCF-7, DU-145, H460, A549, HT29 and HCT116 cells (ATCC, Rockville, Md., USA) were plated in 6-well tissue culture plate. The cells were then treated next day with different concentrations of the RKIs for 1 h. After incubation, the cells were harvested, lysed, quantified and blotted for P-MLC2 (Cat no. 3671S), total-MLC2 (Cat no. 3672S), P-MEK (S298) (Cat no. 9128S), total-MEK (Cat no. 9122S), P-S6 (Cat no. 2155S), total-S6 (2217S), P-Erk (Cat no. 9101L), total Erk (Cat no. 9102L), P-Akt (Cat no. 9271L), total Akt (Cat no. 9272L) (Cell Signaling, Danvers, Mass., USA) and tubulin (Cat no. 5168) (Sigma, St Louis, Mo., USA) antibodies as described by us previously

ROCK2 [8] = molecular target: T1, ROCK2; conditions: different assay conditions; read-out: ROCK 2 IC50 (previously reported); cited from earlier work
Aurora-A = Aurora-A (Homo sapiens (Human), UniProt O14965); assay: Aurora-A inhibition (selectivity); type: biochemical; conditions: FIG. 2
ROCK2 [9] = molecular target: T1, ROCK2; conditions: Feng et al. 2008; read-out: ROCK2 enzymatic activity IC50 (reported); cited from earlier work

Chain of ROCK1 (Q13464 whole entry): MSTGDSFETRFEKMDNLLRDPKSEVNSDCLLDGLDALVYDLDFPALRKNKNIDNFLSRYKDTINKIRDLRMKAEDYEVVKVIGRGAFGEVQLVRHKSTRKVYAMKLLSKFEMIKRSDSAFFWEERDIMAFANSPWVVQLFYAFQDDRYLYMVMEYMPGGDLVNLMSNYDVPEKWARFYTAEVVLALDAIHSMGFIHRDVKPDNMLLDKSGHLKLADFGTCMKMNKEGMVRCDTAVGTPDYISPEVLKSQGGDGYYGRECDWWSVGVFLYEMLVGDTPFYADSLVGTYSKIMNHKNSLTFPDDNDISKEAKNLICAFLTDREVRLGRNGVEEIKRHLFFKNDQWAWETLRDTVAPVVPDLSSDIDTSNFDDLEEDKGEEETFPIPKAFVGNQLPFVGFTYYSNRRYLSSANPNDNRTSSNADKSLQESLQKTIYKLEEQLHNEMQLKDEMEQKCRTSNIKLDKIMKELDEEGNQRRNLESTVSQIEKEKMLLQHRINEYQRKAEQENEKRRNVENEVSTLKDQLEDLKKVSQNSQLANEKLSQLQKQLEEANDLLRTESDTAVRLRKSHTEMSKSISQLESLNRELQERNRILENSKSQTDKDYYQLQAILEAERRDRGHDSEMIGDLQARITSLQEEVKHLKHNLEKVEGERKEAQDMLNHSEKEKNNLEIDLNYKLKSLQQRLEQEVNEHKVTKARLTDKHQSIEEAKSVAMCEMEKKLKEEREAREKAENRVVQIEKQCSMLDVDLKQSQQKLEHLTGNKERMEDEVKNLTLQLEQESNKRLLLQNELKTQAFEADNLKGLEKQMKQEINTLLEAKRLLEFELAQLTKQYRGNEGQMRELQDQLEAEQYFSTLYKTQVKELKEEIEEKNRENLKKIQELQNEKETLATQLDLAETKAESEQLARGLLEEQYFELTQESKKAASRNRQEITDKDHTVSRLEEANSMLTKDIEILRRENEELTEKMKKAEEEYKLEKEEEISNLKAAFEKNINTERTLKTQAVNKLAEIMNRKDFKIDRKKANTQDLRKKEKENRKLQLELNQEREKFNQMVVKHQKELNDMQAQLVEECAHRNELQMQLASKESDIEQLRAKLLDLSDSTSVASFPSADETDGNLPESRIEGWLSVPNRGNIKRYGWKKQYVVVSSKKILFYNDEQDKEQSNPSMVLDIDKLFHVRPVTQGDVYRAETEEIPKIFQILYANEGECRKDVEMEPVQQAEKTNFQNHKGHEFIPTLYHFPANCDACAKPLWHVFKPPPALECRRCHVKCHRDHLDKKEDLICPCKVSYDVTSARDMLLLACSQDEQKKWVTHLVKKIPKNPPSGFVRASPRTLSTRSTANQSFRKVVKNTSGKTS
T1 sequence (O75116 whole entry, species assumed): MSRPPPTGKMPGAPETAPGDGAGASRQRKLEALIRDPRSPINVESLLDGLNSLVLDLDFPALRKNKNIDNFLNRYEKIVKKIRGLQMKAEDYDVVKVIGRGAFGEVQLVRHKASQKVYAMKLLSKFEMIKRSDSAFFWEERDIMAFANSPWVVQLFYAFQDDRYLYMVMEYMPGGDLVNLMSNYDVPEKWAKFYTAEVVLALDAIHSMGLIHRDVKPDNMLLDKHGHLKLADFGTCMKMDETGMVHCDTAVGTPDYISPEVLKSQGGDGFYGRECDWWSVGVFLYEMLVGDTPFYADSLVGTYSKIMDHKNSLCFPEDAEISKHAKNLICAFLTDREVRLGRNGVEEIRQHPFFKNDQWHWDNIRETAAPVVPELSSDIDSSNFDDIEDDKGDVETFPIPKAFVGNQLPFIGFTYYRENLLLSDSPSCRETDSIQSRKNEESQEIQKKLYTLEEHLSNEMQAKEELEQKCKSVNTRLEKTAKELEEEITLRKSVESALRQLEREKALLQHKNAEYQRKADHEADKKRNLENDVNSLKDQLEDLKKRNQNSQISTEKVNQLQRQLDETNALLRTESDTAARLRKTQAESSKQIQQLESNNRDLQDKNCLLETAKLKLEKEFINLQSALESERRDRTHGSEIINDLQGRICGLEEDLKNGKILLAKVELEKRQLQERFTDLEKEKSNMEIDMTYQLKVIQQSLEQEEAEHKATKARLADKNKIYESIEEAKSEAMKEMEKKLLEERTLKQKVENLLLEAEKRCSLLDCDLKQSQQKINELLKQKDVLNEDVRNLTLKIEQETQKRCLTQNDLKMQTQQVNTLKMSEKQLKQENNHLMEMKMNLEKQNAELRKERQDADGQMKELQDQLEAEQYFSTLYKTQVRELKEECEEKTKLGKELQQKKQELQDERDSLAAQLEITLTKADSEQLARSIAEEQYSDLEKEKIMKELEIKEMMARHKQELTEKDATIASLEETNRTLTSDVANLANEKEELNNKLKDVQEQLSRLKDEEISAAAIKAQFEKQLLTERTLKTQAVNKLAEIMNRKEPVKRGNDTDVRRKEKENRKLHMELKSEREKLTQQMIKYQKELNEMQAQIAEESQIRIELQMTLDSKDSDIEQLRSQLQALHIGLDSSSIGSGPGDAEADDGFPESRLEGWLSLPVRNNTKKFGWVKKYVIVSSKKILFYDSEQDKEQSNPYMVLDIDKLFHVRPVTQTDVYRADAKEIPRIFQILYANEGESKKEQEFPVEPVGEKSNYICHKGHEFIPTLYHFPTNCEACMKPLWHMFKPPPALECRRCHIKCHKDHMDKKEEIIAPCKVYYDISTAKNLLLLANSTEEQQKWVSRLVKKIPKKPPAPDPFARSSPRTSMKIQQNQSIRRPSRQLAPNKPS
Chain of Aurora-A (O14965 whole entry): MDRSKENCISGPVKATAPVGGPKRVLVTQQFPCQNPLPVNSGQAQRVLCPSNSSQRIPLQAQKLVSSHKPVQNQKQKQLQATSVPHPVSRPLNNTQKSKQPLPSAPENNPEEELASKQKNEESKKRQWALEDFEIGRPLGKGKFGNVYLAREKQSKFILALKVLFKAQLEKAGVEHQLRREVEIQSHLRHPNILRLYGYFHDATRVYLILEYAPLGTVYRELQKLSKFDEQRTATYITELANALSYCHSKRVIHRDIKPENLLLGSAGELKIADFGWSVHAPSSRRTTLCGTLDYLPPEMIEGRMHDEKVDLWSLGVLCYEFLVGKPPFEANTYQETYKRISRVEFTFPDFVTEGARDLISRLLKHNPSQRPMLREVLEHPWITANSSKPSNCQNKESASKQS

Row | IC50 (ROCK1; triplicate experiments) [nM] | IC50 (ROCK2 [1]; triplicate experiments) [nM] | Compound | also measured
1 | 2610 ± 410 | 19800 ± 3290 | O=C(NCCc1ccccc1)Nc1ccc(-c2ccncc2)cc1 [Compound 25, 1-Phenethyl-3-(4-(pyridin-4-yl)phenyl)urea] | –
2 | – | – | O=C(NCCc1ccccc1)Nc1ccc2[nH]ncc2c1 [Compound 18, 1-(1H-Indazol-5-yl)-3-phenethylurea] | inhibition of invasion (figure legend) (MDA-MB-231 cells [2]): inhibits; induction of apoptosis (caspase 3 activation and PARP cleavage) (MDA-MB-231 cells [3]): did not induce apoptosis; LPA-induced stress fiber formation (NIH 3T3 cells; listed as RKI-18): inhibits; PDGF-induced lamelipodia formation (NIH 3T3 cells; listed as RKI-18): inhibits; bradykinin-induced filopodia formation (NIH 3T3 cells; listed as RKI-18): inhibits; inhibition of migration (figure legend) (MDA-MB-231 cells [4]; FIG. 8): inhibits; inhibition of migration (wound-healing scratch assay) (MDA-MB-231 cells [4]; concentration-dependent manner starting at 3 mM (so in the source)): inhibited the migration; inhibition of anchorage-independent growth (figure legend) (MDA-MB-231 cells [5]; MDA-MB-231, FIG. 7): inhibits; IC50 (MDA-MB-231 cells [6]; Homo sapiens, MDA-MB-231, 72 h, unit given as mM): 0.032 mM; potency at anchorage-dependent proliferation compared to anchorage-independent growth (MDA-MB-231 cells [6]; MDA-MB-231): four-fold less potent; P-MLC2 levels ([7]; 10 μM): greatly decreased
3 | 157000 | 62000 | O=C(Nc1ccccc1)Nc1ccc2[nH]ncc2c1 [Compound 11, 1-(1H-Indazol-5-yl)-3-phenylurea] | inhibition of invasion (figure legend) (MDA-MB-231 cells [2]): not; effect on cell invasion (MDA-MB-231 cells [2]; at 60 mM (so in the source), FIG. 8b): no effect; LPA-induced stress fiber formation (NIH 3T3 cells): not; bradykinin-induced filopodia formation (NIH 3T3 cells): not; inhibition of migration (wound-healing scratch assay) (MDA-MB-231 cells [4]; at 60 mM (so in the source)): did not inhibit; effect on anchorage independent growth (MDA-MB-231 cells [5]; at 60 mM (so in the source)): little effect
4 | 21500 ± 7300 | 7500 ± 1700 | CN(CCc1ccccc1)C(=O)Nc1ccc2[nH]ncc2c1 [Compound 13, 3-(1H-Indazol-5-yl)-1-methyl-1-phenethylurea] | –
5 | 2600 ± 600 | 800 ± 300 | COc1ccc(CCNC(=O)Nc2ccc3[nH]ncc3c2)cc1 [Compound 16, 1-(1H-Indazol-5-yl)-3-(4-methoxyphenethyl)urea] | –
6 | 4600 ± 2100 | 2300 ± 600 | O=C(Nc1ccc2[nH]ncc2c1)N[C@H](CO)Cc1ccccc1 [Compound 14, (S)-1-(1-Hydroxy-3-phenylpropan-2-yl)-3-(1H-indazol-5-yl)urea] | –
7 | 31000 ± 10500 | 32900 ± 4670 | O=C(Nc1ccc(-c2ccncc2)cc1)N[C@H](CO)Cc1ccccc1 [Compound 27, (S)-1-(1-Hydroxy-3-phenylpropan-2-yl)-3-(4-(pyridin-4-yl)phenyl)urea] | –
8 | 75500 | 55900 ± 11300 | O=C(Nc1ccncc1)c1cccnc1 [Compound 3, N-(Pyridin-4-yl)nicotinamide] | –
9 | 1700 | 100 | O=C(Nc1ccc(-c2ccncc2)cc1)N[C@H](CO)c1ccccc1 [Compound 24, (S)-1-(2-Hydroxy-1-phenylethyl)-3-(4-(pyridin-4-yl)phenyl)urea] | LE (Ligand Efficiency), ROCK1 (ROCK1): 0.31; fold difference for ROCK1 (ROCK1; 24 (S) versus 23 (R)): five fold; P-MLC2 levels ([7]; 1 μM): greatly decreased; P-MLC2 levels ([7]; 10 μM): greatly decreased; LE (Ligand Efficiency), ROCK2 (ROCK2 [1]): 0.38; fold more kinase inhibitory activity for ROCK 2 (ROCK2 [1]; 24 (S) versus 23 (R)): 75 fold
10 | 270000 ± 51000 | 357000 ± 35300 | O=C(Nc1ccncc1)c1cncc(Br)c1 [Compound 5, 5-Bromo-N-(pyridin-4-yl)nicotinamide] | –
11 | 9000 | 8000 | O=C(Nc1ccc(-c2ccncc2)cc1)N[C@@H](CO)c1ccccc1 [Compound 23, (R)-1-(2-Hydroxy-1-phenylethyl)-3-(4-(pyridin-4-yl)phenyl)urea] | LE (Ligand Efficiency), ROCK1 (ROCK1): 0.28; P-MLC2 levels ([7]; 1 μM): no effect; P-MLC2 levels ([7]; 10 μM): less potent than 24; LE (Ligand Efficiency), ROCK2 (ROCK2 [1]): 0.28; IC50 (ROCK2 [1]; values in nM): 7520 nM
12 | 14000 | 5500 ± 3100 | O=C(NCc1ccccc1)Nc1ccc2[nH]ncc2c1 [Compound 12, 1-Benzyl-3-(1H-indazol-5-yl)urea] | IC50 (ROCK2 [8]): 0.26 µM
13 | 72500 ± 6800 | 221000 ± 25700 | O=C(Nc1ccncc1)c1cnccc1Cl [Compound 4, 4-Chloro-N-(pyridin-4-yl)nicotinamide] | –
14 | – | – | Nc1ccc2[nH]ncc2c1 [Compound 8, 5-Aminoindazole] | IC50 (ROCK1): 181000 nM; IC50 (ROCK2 [1]): 120000 nM
15 | 65000 | 40000 | CC(=O)Nc1ccc2[nH]ncc2c1 [N-(1H-indazole-5-yl)acetamide] | –
16 | 59000 | 36100 ± 5900 | CN(C)C(=O)Nc1ccc2[nH]ncc2c1 [Compound 10, 3-(1H-Indazol-5-yl)-1,1-dimethylurea] | –
17 | 2200 ± 1000 | 1100 ± 300 | O=C(NCCc1ccc(Cl)cc1)Nc1ccc2[nH]ncc2c1 [Compound 17, 1-(4-Chlorophenethyl)-3-(1H-indazol-5-yl)urea] | –
18 | 1410 | 5360 | O=C(Nc1ccc(-c2ccncc2)cc1)N[C@@H](CO)Cc1ccccc1 [Compound 26, (R)-1-(1-Hydroxy-3-phenylpropan-2-yl)-3-(4-(pyridin-4-yl)phenyl)urea] | –
19 | – | – | O=C(Nc1nc(-c2ccncc2)cs1)C1COc2ccccc2O1 (stereo not shown) [CID5056270, reference compound] | IC50 (Aurora-A): > 100 µM; IC50 (ROCK2 [9]): < 0.003 µM; IC50 (ROCK1; values in nM): 13 nM; IC50 (ROCK2 [1]; values in nM): 0.56 nM
20 | 2460 ± 550 | 1070 | O=C(NCCCc1ccccc1)Nc1ccc2[nH]ncc2c1 [Compound 19, 1-(1H-indazol-5-yl)-3-(3-phenylpropyl)urea] | –
21 | 1150 | 260 | O=C(NCc1ccccc1)Nc1ccc(-c2ccncc2)cc1 [Compound 22, 1-Benzyl-3-(4-(pyridin-4-yl)phenyl)urea] | –

Row | Compound | IC50 (ROCK1; triplicate experiments) [nM] | IC50 (ROCK2 [1]; triplicate experiments) [nM] | also measured
22 | O=C(NCC(O)c1ccccc1)Nc1ccc2[nH]ncc2c1 (stereo not shown) [Compound 15, 1-(2-Hydroxy-2-phenylethyl)-3-(1H-indazol-5-yl)urea] | 2900 ± 800 | – | IC50 (ROCK2 [1]): 1500 ± 400 nM
